The values that follow are results of earlier work, collected in patent publication US20130217055A1, “METHOD FOR PREDICTING TYROSINE KINASE INHIBITOR (TKI) RESISTANCE IN PATIENTS SUFFERING FROM CHRONIC MYELOGENOUS LEUKEMIA (CML)” (PamGene B.V., priority 2010, published 2013).

The series deals with CML patients.

Regarding `Cc1ccc(NC(=O)c2ccc(CN3CCN(C)CC3)cc2)cc1Nc1nccc(-c2cccnc2)n1` [Imatinib], the “complete or nearly complete cytogenetic remission” value (patients treated in chronic phase CML) was “up to 80% of patients”. For the same molecule, the “CML patients treated that are or become resistant to the treatment” value (primary or secondary resistance) is “about 20%”.
